In ChEMBL document CHEMBL1201862, “PubChem BioAssay data set” (2004):
Calls of active or inactive are those of the source.

Tested on: H9c2;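 further: confirmatory concentration-response retest of ultra-high-throughput screening hits for modulation of myocardial damage; cell death induced by hydrogen peroxide oxidative stress; compound pretreatment for 60 min then peroxide exposure for 2 h; potency is for protecting the cells against peroxide damage rather than for killing them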
Assay: cells
Assay type: functional, cell-based
Details: Rattus norvegicus, H9c2, Myocardium

Structure (SMILES)	IC50
CC(C)(C)OC(=O)N1CCC(NC(=O)c2[nH]cnc2C(=O)NCC(=O)OCc2ccccc2)CC1	47 µM (inactive)
CCC(=O)N1CCN(c2ccccc2NC(=O)c2ccc(-c3cccc([N+](=O)[O-])c3)o2)CC1	> 79 µM (inactive)
CCc1nc2ccc(C(=O)NCc3cccs3)cn2c1N(C)Cc1nccs1	12.8 µM (active)
CC(C)(C)C(=O)Nc1ccc(C(=O)N/N=C/c2ccccc2OC(=O)c2ccccc2)cc1	31.5 µM (inactive)
COc1cc(C(=O)N/N=C/c2ccc(OC(=O)c3ccccc3)c(OC)c2)ccc1O	> 79 µM (inactive)

Target: T1, Corticotropin-releasing factor receptor 2/Corticotropin-releasing factor-binding protein (Homo sapiens, UniProt P24387+Q13324)
T1 sequence (Q13324 whole entry): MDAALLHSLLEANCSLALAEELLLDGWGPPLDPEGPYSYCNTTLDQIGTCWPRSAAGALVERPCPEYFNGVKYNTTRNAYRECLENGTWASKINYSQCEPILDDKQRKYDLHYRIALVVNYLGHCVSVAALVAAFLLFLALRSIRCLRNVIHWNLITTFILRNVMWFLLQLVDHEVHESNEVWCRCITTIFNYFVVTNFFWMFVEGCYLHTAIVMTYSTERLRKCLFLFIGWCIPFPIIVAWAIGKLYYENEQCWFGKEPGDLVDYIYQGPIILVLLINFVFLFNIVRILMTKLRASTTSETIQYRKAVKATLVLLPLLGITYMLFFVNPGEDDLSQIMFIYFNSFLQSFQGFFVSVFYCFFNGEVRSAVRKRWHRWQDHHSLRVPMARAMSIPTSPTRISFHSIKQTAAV
T1 sequence (P24387 whole entry): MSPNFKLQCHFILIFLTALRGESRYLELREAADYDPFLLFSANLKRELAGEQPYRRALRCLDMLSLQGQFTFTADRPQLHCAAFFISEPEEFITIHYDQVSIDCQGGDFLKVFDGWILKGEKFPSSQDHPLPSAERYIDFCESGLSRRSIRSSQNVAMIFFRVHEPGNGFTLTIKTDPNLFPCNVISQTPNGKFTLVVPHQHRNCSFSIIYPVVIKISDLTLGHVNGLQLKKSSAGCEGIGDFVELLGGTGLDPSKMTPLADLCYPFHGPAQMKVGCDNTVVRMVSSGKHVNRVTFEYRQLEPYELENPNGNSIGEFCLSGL
Assay: Dose Response confirmation of uHTS hits for small molecule antagonists of the CRF-binding protein and CRF-R2 receptor complex.
Assay type: functional
Details: read-out: IC50_Mean

Structure (SMILES)	IC50
CCOC(=O)C1(CC2CCCCO2)CCN(Cc2nccn2-c2ccc(OC)cc2)CC1 (centres undefined)	> 47.1 µM (inactive)
CC(=O)Nc1cc(C(N)=O)c(Cl)cc1Cl	> 47.1 µM (inactive)
CC(=O)Nc1ccc(S(=O)(=O)N2CCC(NC(C)=O)(c3cccc(F)c3)CC2)cc1	> 47.1 µM (inactive)
Cc1ccc(NC(=O)/C(C#N)=C/c2cn(CC(=O)NCc3ccco3)c3ccccc23)cc1C	> 47.1 µM (inactive)
CN(CC(=O)NCc1ccc(F)cc1)S(=O)(=O)c1ccc(Br)s1	> 47.1 µM (inactive)
O=C(NCCO)c1c(O)c2cccc3c2n(c1=O)CC3	> 47.1 µM (inactive)
Cc1ccc2nc(SCC(=O)N3CCOCC3)[nH]c2c1	> 47.1 µM (inactive)
CCOc1ccccc1N(CC(=O)N1CCC(C(N)=O)CC1)S(=O)(=O)c1ccc(SC)cc1	> 47.1 µM (inactive)

Target: T1, Corticotropin-releasing factor receptor 2/Corticotropin-releasing factor-binding protein
Assay: activators of CRF receptor 2 with binding protein – uHTS hits, confirmation (AID 602473)
Assay type: functional
Details: read-out: EC50_Mean

Structure (SMILES)	EC50
CCOC(=O)C1(CC2CCCCO2)CCN(Cc2nccn2-c2ccc(OC)cc2)CC1 (centres undefined)	> 53 µM (inactive)
CC(=O)Nc1cc(C(N)=O)c(Cl)cc1Cl	> 53 µM (inactive)
CC(=O)Nc1ccc(S(=O)(=O)N2CCC(NC(C)=O)(c3cccc(F)c3)CC2)cc1	> 53 µM (inactive)
Cc1ccc(NC(=O)/C(C#N)=C/c2cn(CC(=O)NCc3ccco3)c3ccccc23)cc1C	> 53 µM (inactive)
CN(CC(=O)NCc1ccc(F)cc1)S(=O)(=O)c1ccc(Br)s1	> 53 µM (inactive)
O=C(NCCO)c1c(O)c2cccc3c2n(c1=O)CC3	> 53 µM (inactive)
C=CCn1c(Oc2ccccc2)nc2c1c(=O)n(C)c(=O)n2C	> 53 µM (inactive)
Cc1ccc2nc(SCC(=O)N3CCOCC3)[nH]c2c1	> 53 µM (inactive)
CCOc1ccccc1N(CC(=O)N1CCC(C(N)=O)CC1)S(=O)(=O)c1ccc(SC)cc1	> 53 µM (inactive)

Target: T2, Protein skinhead-1 (Caenorhabditis elegans, UniProt P34707)
T2 sequence (P34707 whole entry): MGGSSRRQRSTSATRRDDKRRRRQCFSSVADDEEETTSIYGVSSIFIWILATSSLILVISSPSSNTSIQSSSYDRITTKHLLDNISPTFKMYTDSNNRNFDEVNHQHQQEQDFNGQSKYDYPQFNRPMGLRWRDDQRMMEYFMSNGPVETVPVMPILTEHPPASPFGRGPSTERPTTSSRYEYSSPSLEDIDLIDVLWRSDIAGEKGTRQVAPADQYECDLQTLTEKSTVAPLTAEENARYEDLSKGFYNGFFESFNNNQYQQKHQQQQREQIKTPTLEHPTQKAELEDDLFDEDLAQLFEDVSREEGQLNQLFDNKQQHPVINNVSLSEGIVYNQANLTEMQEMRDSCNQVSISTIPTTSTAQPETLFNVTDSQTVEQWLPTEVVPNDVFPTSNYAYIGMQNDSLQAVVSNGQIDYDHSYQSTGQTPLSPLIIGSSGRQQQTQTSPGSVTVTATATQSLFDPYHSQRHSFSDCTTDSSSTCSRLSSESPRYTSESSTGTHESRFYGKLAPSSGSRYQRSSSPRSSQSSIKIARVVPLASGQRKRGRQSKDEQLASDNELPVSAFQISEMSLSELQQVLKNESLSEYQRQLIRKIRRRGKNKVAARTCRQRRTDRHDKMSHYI
Assay: not given
Assay type: functional
Details: not given

Structure (SMILES)	IC50
CC1CCN(c2oc(-c3ccccc3F)nc2C#N)CC1	> 100 µM (inactive)
Cc1ccc(NC(=O)c2cccs2)cc1NC(=O)c1ccco1	> 100 µM (inactive)
O=C(COC(=O)c1ccc(Cl)nc1)Nc1ccc2ccccc2c1	> 100 µM (inactive)
Cc1ccccc1[S+]([O-])Cc1ccc(C(=O)N2CCN(C(=O)c3ccco3)CC2)o1 (centres undefined)	> 100 µM (inactive)
O=C1c2ccccc2C(=O)c2c1ccc(C(=O)N1CCCCC1)c2NCCO	> 100 µM (inactive)
CCc1ccc(NC(=O)c2cc(-c3ccco3)on2)cc1	> 100 µM (inactive)
O=C1c2cc(Br)ccc2OC2C=CC=CC12 (centres undefined)	81 µM (inactive)
